Test [1] deals with C16orf54 expressing sarcoma line 2. The test is described as follows: Cell viability assay, C16orf54 expressing sarcoma line 2. The class given is cell-based, murine. To be noted: 1000 cells/well, 72 hours. How it is done: (§1) Murine sarcoma cell lines that express C16orf54 were prepared by virus infection of sarcoma cell lines. A PCR-amplified C16orf54 gene was cloned into a murine stem cell virus expression vector with a neomycin resistance gene and sequenced to confirm the identity. To prepare virus particles, HEK 293t cells with retroviral packaging proteins were transfected, in the presence of transfection reagent FUGENE HD (Roche), with the retroviral expression vector containing C16orf54. The virus particles collected from the supernatant of the culture media 48 hours after transfection were used to infect the sarcoma cells. After G418 selection, stable transfectants were pooled and then cloned by limiting dilution. Clones were then picked and expanded in the presence of antibiotics. Clones with the highest expression level of C16orf54 as measured by flow cytometry were expanded and banked. These cell lines were then used to immunize the syngeneic mice for antibody production and in the binding assays for antibody selection as follows.
(§2) The anti-tumor activity of unconjugated anti-C16orf54 antibodies and anti-C16orf54 antibodies that were directly conjugated with […] (ADCs) was determined in a cell viability assay using several C16orf54-expressing cell lines. Cells were plated at 1000 cells/well and incubated in the presence of antibodies or ADCs for 72 hours.

Test [2] concerns C16orf54 expressing Sarcoma line 1. The test is described as follows: Cell viability assay, C16orf54 expressing sarcoma line 1. The test is classed as cell-based, murine. The settings on record: 1000 cells/well, 72 hours. How it is done:
as §1, §2

Square brackets hold non-standard residues; d marks the D form. Peptide text beside a SMILES is read from it. * marks the point of attachment. Dolaproine = CO[C@@H]([C@@H]1CCCN1)[C@@H](C)C(=O)O; Dil = CC[C@H](C)[C@H](NC)[C@@H](CC(=O)O)OC; X1 = C[C@@H](N*)[C@@H](O)c1ccccc1; NMeV = CN[C@H](C(=O)O)C(C)C

Consider `CC[C@H](C)[C@@H]([C@@H](CC(=O)N1CCC[C@H]1[C@H](OC)[C@@H](C)C(=O)N[C@H](C)[C@@H](O)c1ccccc1)OC)N(C)C(=O)[C@@H](NC(=O)[C@@H](NC)C(C)C)C(C)C` [MMAE, monomethylauristatin E] (H-[NMeV]V[Dil][Dolaproine]-X1), for which the 50% inhibitory concentration (IC50) turned out to be 4.1 nM in test [1] and 0.4 nM in test [2].

The record behind these values is US20150231240A1, “ANTI-C16ORF54 ANTIBODIES AND METHODS OF USE THEREOF” (priority 2012, published 2015).
